Results reported in US20220242870A1, “HETEROCYCLE-FUSED PYRIMIDINE DERIVATIVE AND USE THEREOF” (VORONOI Inc., priority 2019, published 2022).

What was measured:
MV4-11 cells = experiment: AML cell proliferation inhibitory activity (CellTiter-Glo); format: cell-based; details: Homo sapiens, 72 hours
Method: (§1) The inhibitory activities of the example compounds according to the present invention on the proliferation of acute myeloid leukemia (AML) cells expressing the FLT3 mutant gene were evaluated. Specifically, RS4;11 and MV4-11 cells as acute myeloid leukemia cells expressing the FLT3 mutant gene were cultured in RPMI-1640 (Invitrogen) adding 10% FBS. The cells were seeded into each well of a clear bottom white 96-well plate (Corning) at 3000 to 5000 cells 24 hours before compound treatment. The compound was diluted in DMSO (diluted each three-fold, to a total of 12 concentrations) and injected at 0.5 μL each so as to be a final concentration of 0.3 nM to 50 μM. After 72 hours of the compound treatment, they were treated with CellTiter-Glo Luminescent Cell Viability assay (Promega) and stored at room temperature for 10 minutes, and luminescence intensities were measured with a reader (SynergyNeo, Biotek) to count viable cells. Each experiment was performed three times repeatedly. The result values were calculated as the cell growth rate (%) compared to the control treated with the solvent. The graph was derived using the GraphPad Prism program (version 5.0), the GI50 (nM) values were calculated, and the results were shown in Table 3 below.

RS4;11 cells = experiment: as above; format: cell-based; details: Homo sapiens, 72 hours
Method: as §1

human FLT3-ITD enzyme = biological target: T1, human FLT3-ITD enzyme (Homo sapiens, UniProt P36888); experiment: FLT3 enzyme inhibitory ability (ADP-Glo kinase assay); format: biochemical; details: human FLT3-ITD enzyme 10 ng, ATP 10 μM, 25° C. 1 hour
T1 sequence (P36888 1-993): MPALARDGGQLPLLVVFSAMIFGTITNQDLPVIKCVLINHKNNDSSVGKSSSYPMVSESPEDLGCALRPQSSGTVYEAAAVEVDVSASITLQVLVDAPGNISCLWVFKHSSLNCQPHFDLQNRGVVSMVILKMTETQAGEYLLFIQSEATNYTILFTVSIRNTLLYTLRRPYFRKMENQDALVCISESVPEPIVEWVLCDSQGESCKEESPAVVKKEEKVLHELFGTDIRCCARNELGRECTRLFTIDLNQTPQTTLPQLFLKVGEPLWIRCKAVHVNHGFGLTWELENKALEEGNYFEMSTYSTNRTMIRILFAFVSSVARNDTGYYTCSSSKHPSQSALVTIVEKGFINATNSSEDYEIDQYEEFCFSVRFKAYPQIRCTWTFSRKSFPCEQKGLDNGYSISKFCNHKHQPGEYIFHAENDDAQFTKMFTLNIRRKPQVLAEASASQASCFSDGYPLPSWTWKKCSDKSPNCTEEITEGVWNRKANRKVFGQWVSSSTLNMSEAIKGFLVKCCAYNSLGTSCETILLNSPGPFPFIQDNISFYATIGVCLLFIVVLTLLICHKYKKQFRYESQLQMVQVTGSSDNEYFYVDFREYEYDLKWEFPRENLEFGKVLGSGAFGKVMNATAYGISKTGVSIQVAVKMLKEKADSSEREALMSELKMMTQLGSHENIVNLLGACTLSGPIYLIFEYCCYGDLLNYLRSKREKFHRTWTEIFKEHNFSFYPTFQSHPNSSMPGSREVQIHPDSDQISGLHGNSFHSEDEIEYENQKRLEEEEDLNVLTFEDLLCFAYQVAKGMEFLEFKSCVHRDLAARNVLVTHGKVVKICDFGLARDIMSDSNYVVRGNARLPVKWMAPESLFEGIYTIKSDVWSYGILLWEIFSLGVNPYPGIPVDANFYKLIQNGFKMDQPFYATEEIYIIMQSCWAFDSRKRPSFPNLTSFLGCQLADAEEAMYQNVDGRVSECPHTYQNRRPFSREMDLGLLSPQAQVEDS
In short: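 Purified human FLT3-ITD (10 ng) with 10 μM ATP and specific substrate in 40 mM Tris-HCl pH 7.4, 20 mM MgCl2, 0.5 mg/mL BSA, 50 μM DTT, 1 h at 25 °C. ADP formation read by ADP-Glo luminescence; IC50 (nM) versus solvent-treated control.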

human GST-HPK1 (1-346) = biological target: T2, human GST-HPK1 (1-346) (Homo sapiens, UniProt Q92918); experiment: HPK1 enzyme inhibitory ability (ADP-Glo kinase assay); format: biochemical; details: human GST-HPK1 3 ng, ATP 3 uM, 25° C. 2 hours
T2 construct: purified human GST-HPK1 (1-346, Signalchem) enzyme; purchased Signalchem
T2 sequence (Q92918 1-346): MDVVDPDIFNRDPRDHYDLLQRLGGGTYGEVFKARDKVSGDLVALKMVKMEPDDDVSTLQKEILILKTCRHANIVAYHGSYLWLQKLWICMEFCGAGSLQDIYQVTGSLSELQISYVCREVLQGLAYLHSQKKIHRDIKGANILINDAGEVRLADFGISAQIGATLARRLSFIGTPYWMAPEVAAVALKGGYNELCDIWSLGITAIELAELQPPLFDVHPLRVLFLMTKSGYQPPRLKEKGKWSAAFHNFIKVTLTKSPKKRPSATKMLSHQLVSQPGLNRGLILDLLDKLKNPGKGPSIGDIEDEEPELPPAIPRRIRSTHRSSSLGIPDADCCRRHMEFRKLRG
In short: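 Human GST-HPK1(1-346), 3 ng, reacted with 3 uM ATP and specific substrate in 40 mM Tris-HCl pH 7.4, 20 mM MgCl2, 0.5 mg/mL BSA, 50 uM DTT for 2 h at 25° C. ADP-Glo luminescence read; IC50 (nM) relative to untreated solvent control.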

MCF-7 cells = experiment: Breast cancer cell line proliferation inhibitory activity (CellTiter-Glo 2.0); format: cell-based; details: Homo sapiens, MCF7, 120 hours
In short: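 MCF-7 cells exposed to a 12-point, 3-fold dilution series (final 0.00005–10 μM) for 120 h at 37 °C. Viability read by CellTiter-Glo 2.0 luminescence, expressed as percent of vehicle-treated cells. GI50 (nM) derived from the curves.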

| Compound | GI50 (MV4-11 cells) | GI50 (RS4;11 cells) | IC50 (human FLT3-ITD enzyme) | IC50 (human GST-HPK1 (1-346)) | GI50 (MCF-7 cells) |
| --- | --- | --- | --- | --- | --- |
| CN(C)CCN(C)c1ccc(Nc2nc(N3N=CCC3c3ccccc3)c3sccc3n2)cc1 (stereo not drawn) [Example 2, N-(2-(dimethylamino)ethyl)-N-methyl-N-(4-(5-phenyl-4,5-dihydro-1H-pyrazol-1-yl)thieno[3,2-d]pyrimidin-2-yl)benzene-1,4-diamine] | ≥ 0.25 µM | > 0.5 µM | 0.25 to 0.5 µM | – | – |
| C1=NN(c2nc(Nc3ccc(N4CCC(N5CCOCC5)CC4)cc3)nc3ccsc23)C(c2ccccc2)C1 (stereo not drawn) [Example 9, N-(4-(4-morpholinopiperidin-1-yl)phenyl)-4-(5-phenyl-4,5-dihydro-1H-pyrazol-1-yl)thieno[3,2-d]pyrimidin-2-amine] | > 0.5 µM | > 0.5 µM | > 0.5 µM | – | – |
| CN1CCN(C(=O)Nc2ccc(Nc3nc(N4N=CCC4c4ccccc4)c4sccc4n3)cc2)CC1 (stereo not drawn) [Example 20, 4-methyl-N-(4-((4-(5-phenyl-4,5-dihydro-1H-pyrazol-1-yl)thieno[3,2-d]pyrimidin-2-yl)amino)phenyl)piperazine-1-carboxamide] | 0.25 to 0.5 µM | > 0.5 µM | ≥ 0.25 µM | – | – |
| CN1CCN(c2ccc(Nc3nc(N4N=CCC4c4cc5ccccc5cn4)c4sccc4n3)cc2)CC1 (stereo not drawn) [Example 32, 4-(5-(isoquinolin-3-yl)-4,5-dihydro-1H-pyrazol-1-yl)-N-(4-(4-methylpiperazin-1-yl)phenyl)thieno[3,2-d]pyrimidin-2-amine] | > 0.5 µM | > 0.5 µM | > 0.5 µM | – | – |
| CN1CCN(c2ccc(Nc3nc(N4N=CCC4c4ccccn4)c4sccc4n3)cc2)CC1 (stereo not drawn) [Example 33, N-(4-(4-methylpiperazin-1-yl)phenyl)-4-(5-(pyridin-2-yl)-4,5-dihydro-1H-pyrazol-1-yl)thieno[3,2-d]pyrimidin-2-amine] | > 0.5 µM | > 0.5 µM | > 0.5 µM | – | – |
| CCN1CCN(c2ccc(Nc3nc(N4N=CCC4c4ccccc4)c4sccc4n3)cc2)CC1 (stereo not drawn) [Example 39, N-(4-(4-ethylpiperazin-1-yl)phenyl)-4-(5-phenyl-4,5-dihydro-1H-pyrazol-1-yl)thieno[3,2-d]pyrimidin-2-amine] | ≥ 0.25 µM | > 0.5 µM | ≥ 0.25 µM | – | – |
| COc1cc(Nc2nc(N3N=CCC3c3ccccc3)c3sccc3n2)ccc1N1CCN(C)CC1 (stereo not drawn) [Example 40, N-(3-methoxy-4-(4-methylpiperazin-1-yl)phenyl)-4-(5-phenyl-4,5-dihydro-1H-pyrazol-1-yl)thieno[3,2-d]pyrimidin-2-amine] | ≥ 0.25 µM | > 0.5 µM | 0.25 to 0.5 µM | – | – |
| CCN1CCN(c2ccc(Nc3nc(N4N=CCC4c4ccccc4)c4sccc4n3)c(OC)c2)CC1 (stereo not drawn) [Example 41, N-(4-(4-ethylpiperazin-1-yl)-2-methoxyphenyl)-4-(5-phenyl-4,5-dihydro-1H-pyrazol-1-yl)thieno[3,2-d]pyrimidin-2-amine] | ≥ 0.25 µM | > 0.5 µM | ≥ 0.25 µM | – | – |
| Clc1c[nH]c2nc(Nc3ccc4c(c3)CCNC4)nc(N3OCC[C@H]3c3ccccc3)c12 [Example 117, (S)-N-(5-chloro-4-(3-phenylisoxazolidin-2-yl)-7H-pyrrolo[2,3-d]pyrimidin-2-yl)-1,2,3,4-tetrahydroisoquinolin-6-amine] | > 0.5 µM | – | ≥ 0.25 µM | ≥ 0.25 µM | ≥ 0.25 µM |
| CN1CCN(C2CCN(c3ccc(Nc4nc(N5OCC[C@H]5c5ccccc5)c5c(C#N)c[nH]c5n4)cc3)CC2)CC1 [Example 119, (S)-2-((4-(4-(4-methylpiperazin-1-yl)piperidin-1-yl)phenyl)amino)-4-(3-phenylisoxazolidin-2-yl)-7H-pyrrolo[2,3-d]pyrimidine-5-carbonitrile] | ≥ 0.25 µM | – | ≥ 0.25 µM | ≥ 0.25 µM | > 0.5 µM |
| N#Cc1c[nH]c2nc(Nc3ccc4c(c3)CCNC4)nc(N3OCC[C@H]3c3ccccc3)c12 [Example 120, (S)-4-(3-phenylisoxazolidin-2-yl)-2-((1,2,3,4-tetrahydroisoquinolin-6-yl)amino)-7H-pyrrolo[2,3-d]pyrimidine-5-carbonitrile] | ≥ 0.25 µM | – | ≥ 0.25 µM | ≥ 0.25 µM | ≥ 0.25 µM |
